A short description of data set [1]: Acute toxicity, LD50 of each drug in male mice (DBA). It is filed as in vivo. The following applies: mouse, in vivo. The text has this:
(§1) In this invention, 10-monohalo-fusaric acid can be prepared by dissolving dehydrofusaric acid in water or other suitable organic solvent, if necessary, together with a suitable reagent for generating hydrogen halide. Hydrogen halide is then introduced or generated to effect the addition reaction. […] The halo-fusaric halide can be prepared by reacting halogenating agent such as thionylchloride, hydrochloride with halo-fusaric acid in a solvent. The solvent can be inert solvent or halogenating agent such as thionyl chloride. The ahlo-fusaric acid amides of the invention can be prepared from the halo-fusaric halide in a solvent by introducing ammonia gas or adding methylamine, dimethylamine, ethylamine, diethylamine, etc.. The halogenating agents used for preparing halo-fusaric halide can be thionylchloride, hydrochloride, phosphorus pentachloride and phosphorus oxychloride. The thionylchloride can be used without a solvent, however, it is usual to carry out the halogenation of halo-fusaric acid in a solvent such as chloroform, benzene, etc.. The halo-fusaric halide reacts with ammonia or a lower alkylamine in a solvent such as chloroform, benzene, etc.. The ahlo-fusaric acid amide can be prepared from halo-fusaric acid ester by reacting it with an alkylamine. The halo-fusaric acid ester can be prepared by reacting halo-fusaric acid with an alcohol in the presence of […]. The details of the preparation of the halo-fusaric acid can be understood from the description of the examples. The halo-fusaric acid amides of the invention are characterized by a significant anti-hypertensive effects and low toxicity. The followings are test results of anti-hypertensive effects and toxicities of the typical halo-fusaric acid amides of the invention. The anti-hypertensive effects of dibromo, monobromo, dichloro and monochloro fusaric acid amide, monomethylamide, dimethylamide were compared with those of dibromofusaric acid and fusaric acid. Blood pressure of spontaneously hypertensive rats (SHR) derived from the colony of SHR produced by selective inbreeding of a strain of Wistar rats (Okamoto and Aoki, Jap. Circul. J. 27:282-293, 1963) was measured indirectly in unanaesthesized rats plethysmographically (Williams et al, J. Clin. Invest. 18:373-376, 1939). Thirty percent depression of systolic blood pressure was defined to be significant and effective change. […] LD50 of each drug was obtained using male mice (DBA).

Data set [2] deals with spontaneously hypertensive rats (SHR). Description: Antihypertensive action in spontaneously hypertensive rats, systolic blood pressure measured plethysmographically. It is filed as in vivo, Wistar-derived). The following applies: for ED50: Rattus norvegicus.
Excerpt: as §1

A short description of the next data set: Solubility. The class given is physicochemical. The following applies: qualitative.
The subject of a further data set is male mice (DBA). Description: Acute toxicity, LD50 of each drug in male mice (DBA). It is filed as in vivo. The following applies: male mice (DBA), summary statement.
Excerpt: as §1

Another data set has as its system dopamine-β-hydroxylase. The following applies: prior art statement; cited from earlier work.
For data set [3] the following is noted: prior art statement; cited from earlier work.
Setting [4] is: ip, antihypertensive action, intraperitoneal, SHR, 30% depression of systolic blood pressure defined as effective, read-out: ED50 (mg/kg) Intraperitoneally.
[5] abbreviates: antihypertensive action, oral, SHR, 30% depression of systolic blood pressure defined as effective, read-out: ED50 (mg/kg) Orally.
[6] abbreviates: ip, intraperitoneal, male mice (DBA), read-out: LD50 (mg/kg) Intraperitaneally.
[7] abbreviates: oral, male mice (DBA), read-out: LD50 (mg/kg) Orally.
[8] abbreviates: ip, read-out: ED50 (mg/kg) Intraperitoneally.
The mark [9] stands for this setting: po, read-out: ED50 (mg/kg) Orally.

The source of these data is US3935221A, “Substituted fusaric acid derivatives” (Banyu Pharmaceutical Co., Ltd., priority 1971, dated 1976).

Where two headings read alike, the source gives them in different places.

With `CN(C)C(=O)c1ccc(CCC(Br)CBr)cn1` (stereo not shown) [Compound 3, N.N-Dimethyl-5-(3,4-dibromobutyl)picolinamide], the values for the LD50 in data set [1] (ip) and in data set [1] (po) were 304 mg/kg and 500 mg/kg, respectively. In addition, the ED50 was 3 mg/kg in data set [2] (setting [4]) and 4 mg/kg in data set [2] (setting [5]).
For the compound `O=C(O)c1ccc(CCC(Br)CBr)cn1` (stereo not shown) [Compound 6, 5-(3,4-dibromobutyl)picolinic acid, reference compound], the LD50 in data set [1] (setting [6]) was found to be 132 mg/kg; in data set [1] (setting [7]), 180 mg/kg. Moreover, the ED50 stood at 3.2 mg/kg in data set [2] (setting [4]) and 4 mg/kg in data set [2] (setting [5]). Besides, the “Solubility: insoluble” value in “Solubility” was “insoluble in cold water and petroleum ether”. In addition, in the data set “Solubility”, the “Solubility: soluble” value was “soluble in alcohol, chloroform, benzene, ethylacetate, and hot water”.
Take `NC(=O)c1ccc(CCC(Br)CBr)cn1` (stereo not shown) [Compound 1, 5-(3,4-Dibromobutyl)picolinamide]: the figures for the LD50 in data set [1] (setting [6]) and in data set [1] (setting [7]) were 1170 mg/kg and 1860 mg/kg, respectively. In addition, the “toxicity (in words)” value with male mice (DBA) is reported as “the least toxic”. The ED50 in data set [2] (setting [8]) was found to be 1 mg/kg; in data set [2] (setting [9]), 1.6 mg/kg. The “anti-hypertensive effects (in words)” value in data set [2] (SHR, summary statement) is listed as “the most effective drug for hypertension”. Besides, the “Solubility: insoluble” value in “Solubility” is listed as “Insoluble in water, ether”. Also, the “Solubility: soluble” value in “Solubility” is “Soluble in alcohol, acetone, benzene, chloroform”.
Regarding `CC(Br)CCc1ccc(C(=O)O)nc1` (stereo not shown) [10-bromo-fusaric acid, 5-(3-bromobutyl)picolinic acid], in “Solubility”, the “Solubility: insoluble” value is reported as “insoluble in n-hexane, petroleum ether”; the “Solubility: soluble” value is “soluble in alcohol, chloroform, acetone, benzene, ethylacetate, and is soluble in hot water but difficulty soluble in cold water”.
With `NC(=O)c1ccc(CCC(Cl)CCl)cn1` (stereo not shown) [Compound 4, 5-(3,4-Dichlorobutyl)picolinamide], the LD50 in data set [1] (setting [6]) amounted to 374 mg/kg; in data set [1] (setting [7]), 620 mg/kg. The ED50 in data set [2] (setting [4]) was 2 mg/kg; in data set [2] (setting [5]) it was 4 mg/kg. For the same compound, in the data set “Solubility”, the “Solubility: insoluble” value is recorded as “Insoluble in water, ether”. The “Solubility: soluble” value in “Solubility” is on record as “Soluble in methanol, acetone, benzene, chloroform”.
On to `CN(C)C(=O)c1ccc(CCC(Cl)CCl)cn1` (stereo not shown) [Compound 5, N.N-Dimethyl-5-(3,4-dichlorobutyl)picolinamide], for which the LD50 in data set [1] (ip) is 188 mg/kg; in data set [1] (po), 300 mg/kg. For the same compound, the figures for the ED50 in data set [2] (setting [4]) and in data set [2] (setting [5]) were 5 mg/kg and 1.6 mg/kg, respectively.
Take `CC(Br)CCc1ccc(C(N)=O)nc1` (stereo not shown) [Compound 2, 5-(3-Bromobutyl)picolinamide]: the figures for the LD50 in data set [1] (setting [6]) and in data set [1] (setting [7]) were 633 mg/kg and 1050 mg/kg, respectively. The ED50 in data set [2] (setting [4]) worked out at 2 mg/kg; in data set [2] (setting [5]), 4 mg/kg.
As to `CCCCc1ccc(C(=O)O)nc1` [Compound 7, Fusaric acid], the LD50 in data set [1] (setting [6]) was found to be 110 mg/kg; in data set [1] (setting [7]) it was 130 mg/kg. Further, the ED50 was found to be 3.5 mg/kg in data set [2] (setting [8]) and 4 mg/kg in data set [2] (setting [9]). Moreover, the “inhibition of the production of dopamine-β-hydroxylase” value with dopamine-β-hydroxylase was “inhibit the production of dopamine-β-hydroxylase”. Further, in data set [3], the toxicity entry is reported as “quite high in toxicity”.
